Assay results as given in ChEMBL document CHEMBL2021911 (Bioorg Med Chem Lett, 2012).

How the values were obtained:
[1] = biological target: T1, Muscarinic acetylcholine receptor M1 (Homo sapiens, UniProt P11229); test: Agonist activity at human muscarinic M1 receptor; format: functional
T1 sequence (P11229 whole entry): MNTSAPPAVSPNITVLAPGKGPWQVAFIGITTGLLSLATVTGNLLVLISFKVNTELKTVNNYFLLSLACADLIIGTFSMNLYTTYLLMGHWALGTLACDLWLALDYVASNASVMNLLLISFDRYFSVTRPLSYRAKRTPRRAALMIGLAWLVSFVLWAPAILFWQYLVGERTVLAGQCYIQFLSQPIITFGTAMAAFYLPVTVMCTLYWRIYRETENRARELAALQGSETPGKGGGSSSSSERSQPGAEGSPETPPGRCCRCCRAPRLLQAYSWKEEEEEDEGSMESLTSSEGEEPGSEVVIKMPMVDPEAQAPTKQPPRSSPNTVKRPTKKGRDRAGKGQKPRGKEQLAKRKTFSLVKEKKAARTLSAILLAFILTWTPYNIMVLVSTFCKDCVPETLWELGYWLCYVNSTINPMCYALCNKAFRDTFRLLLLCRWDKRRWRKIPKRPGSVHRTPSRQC

[2] = biological target: T2, Muscarinic acetylcholine receptor M1 (Homo sapiens) (UniProt P11229); test: Agonist activity at human muscarinic M1 receptor at 30 uM relative to acetylcholine; format: functional
T2 sequence (whole entry): T1 sequence (P11229 whole entry)

EC50 [1]	Compound	EC50 ([1]; read-out: EC50) [nM]	Activity [2] [%]
–	CCOC(=O)N1[C@@H]2CC[C@H]1C[C@H](NCCNC(=O)c1cccs1)C2	1000	33
Not Active	CCCC(=O)N1[C@@H]2CC[C@H]1C[C@H](NCCNC(=O)c1ccccc1)C2	–	–
Not Active	CCOC(=O)N1[C@@H]2CC[C@H]1C[C@H](NCCNS(=O)(=O)c1cccc(OC)c1)C2	–	–
–	O=C(NCCN[C@@H]1C[C@H]2CC[C@@H](C1)N2C(=O)OCc1ccccc1)c1ccccc1	> 10000	7
–	CCOC(=O)N1[C@@H]2CC[C@H]1CC(NCCNC(=O)c1ccc(C)c(F)c1)C2 (mixture of isomers)	470	40
–	CCOC(=O)N1CC[C@H]2[C@@H](CCCN2CCNC(=O)c2ccccc2)C1 (relative stereo)	3200	13
–	CCOC(=O)N1[C@@H]2CC[C@H]1C[C@H](NCCNC(=O)c1cccc(Cl)c1)C2	440	63
–	CCOC(=O)N1[C@@H]2CC[C@H]1C[C@H](NCCNC(=O)c1ccccc1C)C2	1100	47
–	CCOC(=O)N1CCC(N2CCC[C@@H](NC(=O)c3ccccc3C)C2)CC1	890	71
–	CCOC(=O)N1[C@@H]2CC[C@H]1C[C@H](NCCNC(=O)N1CCOCC1)C2	2000	44
–	CC(C)C(=O)N1[C@@H]2CC[C@H]1C[C@H](NCCNC(=O)c1ccccc1)C2	5400	23
–	CCOC(=O)N1C[C@H]2CC[C@@H](C1)[C@H]2NCCNC(=O)c1cc(F)cc(F)c1	200	53
Not Active	CCC(=O)N1[C@@H]2CC[C@H]1C[C@H](NCCNC(=O)c1ccccc1)C2	–	–
–	COC(=O)N1[C@@H]2CC[C@H]1C[C@H](NCCNC(=O)c1ccccc1)C2	> 10000	21
Not Active	CCS(=O)(=O)N1[C@@H]2CC[C@H]1C[C@H](NCCNC(=O)c1ccccc1)C2	–	–
–	CCOC(=O)N1C2CCC1CC(N1CCC[C@H](NC(=O)c3ccccc3C)C1)C2 (mixture of isomers)	2100	52
–	CCOC(=O)N1[C@@H]2CC[C@H]1C[C@H](NCCNC(=O)N1CCCC1)C2	> 10000	11
Not Active	CCOC(=O)N1[C@@H]2CC[C@H]1C[C@H](NCCNC(=O)NC1CC1)C2	–	–
–	CCOC(=O)N1C2CCC1CC(N1CC[C@H](NC(=O)c3ccccc3C)C1)C2 (mixture of isomers)	> 10000	22
–	C=CCOC(=O)N1[C@@H]2CC[C@H]1C[C@H](NCCNC(=O)c1ccccc1)C2	2000	40
–	CCOC(=O)N1CC[C@H]2[C@H](CCCN2CCNC(=O)c2ccccc2)C1 (relative stereo)	1200	13
–	CCOC(=O)N1[C@@H]2CC[C@H]1C[C@H](NCCNC(=O)N1[C@H](C)CCC[C@@H]1C)C2	2500	39
–	CCOC(=O)N1C[C@H]2CC[C@@H](C1)[C@H]2NCCNC(=O)c1cccs1	170	54
–	CCOC(=O)N1[C@@H]2CC[C@H]1C[C@H](NCCNC(=O)c1ccccc1Cl)C2	2300	37

EC50 [1]	Compound	EC50 ([1]; read-out: EC50) [nM]	Activity [2] [%]
–	CCOC(=O)N1C2CCC1CC(N1CC(NC(=O)c3ccccc3)C1)C2 (mixture of isomers)	2200	34
–	CCOC(=O)N1C[C@@H]2C(NCCNC(=O)c3ccccc3C)[C@@H]2C1 (stereo partly specified)	4100	60
–	CCOC(=O)N1C[C@H]2CC[C@@H](C1)[C@H]2NCCNC(=O)N1CCCCC1	690	9
–	CCOC(=O)N1C2CCC1CC(N1CC[C@@H](NC(=O)c3ccccc3)C1)C2 (mixture of isomers)	320	62
Not Active	CN(C)C(=O)N1[C@@H]2CC[C@H]1C[C@H](NCCNC(=O)c1ccccc1)C2	–	–
–	CCOC(=O)N1C[C@H]2CC[C@@H](C1)[C@H]2NCCNC(=O)N1CCOCC1	> 10000	11
–	CCOC(=O)N1C[C@H]2CC[C@@H](C1)[C@H]2NCCNC(=O)C1CCCCC1	1000	37
–	CCOC(=O)N1[C@@H]2CC[C@H]1C[C@H](NCCNC(=O)N1CCCCC1)C2	570	53
–	CCOC(=O)N1C2CCC1CC(N1CC[C@@H](NC(=O)c3ccccc3C)C1)C2 (mixture of isomers)	1200	55
–	CCOC(=O)N1[C@@H]2CC[C@H]1C[C@H](NCCNC(=O)c1ccncc1)C2	> 10000	6
–	CCOC(=O)N1[C@@H]2CC[C@H]1C[C@H](NCCNC(=O)c1cccc(OC)c1)C2	3600	33
Not Active	CS(=O)(=O)N1[C@@H]2CC[C@H]1C[C@H](NCCNC(=O)c1ccccc1)C2	–	–
–	CCOC(=O)N1[C@@H]2CC[C@H]1C[C@H](NCCNC(=O)c1ccc(F)c(F)c1)C2	810	50
Not Active	CCOC(=O)N1[C@@H]2CC[C@H]1C[C@H](NCCNC(=O)c1ccc[nH]1)C2	–	–
–	CCOC(=O)N1C2CCC1CC(N1CC[C@H](NC(=O)c3ccccc3)C1)C2 (mixture of isomers)	1200	39
–	CCOC(=O)N1[C@@H]2CC[C@H]1C[C@H](NCCNC(=O)c1ccc(F)cc1)C2	830	54
Not Active	CCOC(=O)N1[C@@H]2CC[C@H]1C[C@H](NCCNC(=O)c1ccccc1C(F)(F)F)C2	–	–
–	COC(=O)C12CCC(NCCNC(=O)c3ccccc3)(CC1)CC2	6200	18
–	CCOC(=O)N1[C@@H]2CC[C@H]1C[C@H](NCCNC(=O)C1CCCCC1)C2	1500	34
–	CCOC(=O)N1C[C@H]2CC[C@@H](C1)[C@H]2NCCNC(=O)c1cccc(OC)c1	240	47
–	CCOC(=O)N1[C@@H]2CC[C@H]1C[C@H](NCCNC(=O)c1cc(F)cc(F)c1)C2	1900	43
–	CCOC(=O)N1C[C@H]2CC[C@@H](C1)[C@H]2NCCNC(=O)c1ccccc1C	170	51
–	CCOC(=O)N1C2CCC1CC(N1CCC[C@H](NC(=O)c3ccccc3)C1)C2 (mixture of isomers)	> 10000	12

Compound	EC50 [1]	EC50 ([1]; read-out: EC50) [nM]	Activity [2] [%]
O=C(NCCN[C@@H]1C[C@H]2CC[C@@H](C1)N2C(=O)Oc1ccccc1)c1ccccc1	Not Active	–	–
